In publication PMC12503906, “Novel Pyrazolo [1,5‐a]−1,3,5‐Triazine Derivatives as CDK7 Inhibitors: Synthesis and Biological Insights in Pancreatic Ductal Adenocarcinoma Models” (Chemmedchem, 2025):

Columns and labels:
Assay type in all cases: cell-based
PANC‐1 = assay: Cell cycle analysis (FACS, PI staining), PANC‐1; settings: for percentage of cells in the G2‐M phase: untreated 18.1%; for percentage of cells in the G0‐G1 phase: untreated 40.7%; for percentage of cells in the S phase: untreated 41.3%
Protocol: Modulation of the cell cycle was analyzed via flow cytometry. Cells (5 × 10^5 cells mL^− ^1) were seeded in 6‐well plates and were incubated at 37 °C overnight. Cells were treated with the compounds 1b and 1g at two different concentrations (1 × IC50 and 4 × IC50, according to each cell line) and were again incubated for 24 and 72 h. After treatment, cells were harvested with trypsin and were collected in specific fluorescence‐activated cell sorting (FACS) tubes. Cells were then washed with PBS and centrifuged at 1500 rpm for 5 min, in order to form a pellet. These pellets were fixed in 1 mL of ice‐cold 70% ethanol, added drop by drop during vortex, and placed in the refrigerator at 4 °C. After overnight incubation, the cells were washed twice with PBS, centrifuged (5 min at 1500 rpm), resuspended in 50 µL of RNase (100 µg mL^− ^1), and incubated for 30 min at 37 °C. Finally, 200 µL of propidium iodide solution (PI, 50 µg mL^− ^1) was added, and the cell distribution in the various phases of the cell cycle was analyzed via BD LSRFortessa Cell Analyzer. Data analysis was carried out with FACSdiva software (Becton Dickinson), while cell cycle distribution was determined using FCS express software.

Bax/Bcl‐2 [1] = assay: Bax/Bcl‐2 ratio by RT‐PCR, SUIT 2.28 cells
Protocol: (§1) In order to understand modulation of downstream genes of CDK7, gene expression analysis by qPCR was performed in all cell lines. Cells (5 × 10^5/well) were seeded in 6‐well plates and treated with the compounds 1b and 1g at 1× and 4 × IC50 concentrations. Cell lysates were collected 24 h post‐treatment using 300 µL of TRIzol Reagent (Ambion, 15,596,018) per well. Total RNA was extracted by mixing 60 µL of chloroform to the samples, incubating for 3 min and centrifuging at 12,000 rcf for 15 min at 4 °C. The upper aqueous phase containing RNA was transferred to a new Eppendorf and mixed with 120 µL of cold isopropanol in order to allow the RNA to precipitate. Samples were incubated at RT for 10 min and were then centrifuged at 12,000 rcf for 10 min at 4 °C. The isopropanol was carefully removed, and the pellet was washed twice with 70% ETOH. Pellets were left to air dry and consequently resuspended in RNAse‐free water. Samples were left agitation on a thermomixer at 55 °C for 10 min at 600 rpm and were then quantified through NanoDrop technology (Thermo Scientific, NanoDrop One/One^c). RNA samples were stored at −80 °C.
(§2) In order to perform cDNA synthesis, the First Strand cDNA synthesis kit (Thermo Scientific, K1612) was used. The previously isolated RNA was mixed with 1 µL of oligo dT18 primer into a pcr tube. Nuclease free water was added to reach a final volume of 11 µL. Samples were centrifuged at 1200 rcf for 5 min and were then placed on a thermomixer at 65 °C for a few minutes. A master mix was prepared, including 4 µL of 5× reaction buffer, 1 µL of ribolock RNAse inhibitor, 2 µL of dntp mix (10 mM), and 2 µL of M‐mulv reverse transcriptase for each sample. In total 9 µL of master mix were added to each vial. Samples were centrifuged again and were finally synthesized, following a cycle of 60 min at 37 °C and 5 min at 70 °C. cDNA was now finally synthesized and could be stored at −20 °C. RT‐PCRs reactions were performed using SYBR Green (Bio‐Rad, 1,725,271) (5 µL per sample), primer mix (0.3 µM) (2 µL per sample), and cDNA (10 ng µL^− ^1) (3 µL per sample). […] RT‐PCR assays were carried out in a GeneAmp 5700 Sequence Detection System programmed to hold at 50 °C for 30 min, to hold at 95 °C for 10 min, and to complete 45 cycles of 95 °C for […] and 50 °C for 1 min. The genes that were investigated are shown in Table 5 , with their respective forward and reverse primer sequences.

PATU‐T = assay: Wound healing assay, PATU‐T; settings: 1 × IC50 and 4 × IC50, 4 to 24 h
Protocol: (§3) The wound healing assay was used to test the migratory ability of the selected cells post‐treatment. Cells (5 × 10^4 /well) were seeded on 96‐well. After 24 h, cells reached the optimal 100% confluency, and an artificial wound was created with a 96‐well Pintool Scratcher. The cells were immediately washed with complete medium, in order to remove cell debris after the scratch, and images of the wells were captured at time 0 h, right before the addition of the treatment. Each drug (1b and 1g) was previously diluted in the respective medium at two different concentrations: 1 × IC50 and 4 × IC50 (according to the cell specific IC50 value) and were then added to the cells. Images were then taken at timepoints 4, 8, 20, and 24 h using the Leica microscope with a JAI TMC‐137 camera to assess wound closure. The images were analyzed using the Universal Grab 6.3 software (DCILabs), and the obtained data were used to determine the percentage of migration of the cells, using the following formula. (2) % Migration=Mean width of the wound atT=0−Mean width of the wound atT=X/Mean width of the wound atT=0×100

PDAC3 = assay: Wound healing assay, PDAC3; settings: PDAC3, up to 24 h
Protocol: as §3

CDK7 = CDK7 (Homo sapiens, UniProt P50613); assay: Kinase activity profiling, PamChip array, CDK7; design: endogenous in cells; host or cells: PDAC3 primary cells; settings: PDAC‐3 primary cells, IC50 concentration, 2 h, Pamgene array
Protocol: A Kinase activity profiling was conducted using a PamChip (Pamgene, s‐Hertogenbosch, The Netherlands) array containing 144 peptide substrates specific to tyrosine kinases to assess activity changes upon treatment with compounds 1b and 1g. Experiments were carried out in PDAC3 cells, using biological triplicates comprising three untreated controls and three samples treated for 2 h with either compound at their respective 1 × IC50 concentrations, following protocols adapted from previous studies.^[ [38] ^] Protein concentrations were quantified using the Bio‐Rad protein assay, which is based on the Bradford method (Bio‐Rad, Hercules, CA). For chip loading, protein lysates were adjusted to a final concentration of 10 µg per array and combined with PamGene MasterMix. During the assay, samples were circulated through the array at 30 °C with one cycle per minute over 60 cycles. Fluorescence data acquisition was performed using a 12‐bit CCD camera, capturing real‐time fluorescence intensities. End‐point spot intensities were analyzed using the open‐source software ScanAnalyze, with background normalization applied. Statistical comparisons were performed using student's t‐test in R (version 3.6.1), followed by false discovery rate (FDR) correction.

Bax/Bcl‐2 [2] = assay: Bax/Bcl‐2 ratio by RT‐PCR, PATU‐T cells
Protocol: as §1, §2

PATU‐T GR = assay: Wound healing assay, PATU‐T GR; settings: 1× and 4 × IC50, up to 24 h
Protocol: as §3

Sequence of CDK7 (P50613 2-346 limits assumed): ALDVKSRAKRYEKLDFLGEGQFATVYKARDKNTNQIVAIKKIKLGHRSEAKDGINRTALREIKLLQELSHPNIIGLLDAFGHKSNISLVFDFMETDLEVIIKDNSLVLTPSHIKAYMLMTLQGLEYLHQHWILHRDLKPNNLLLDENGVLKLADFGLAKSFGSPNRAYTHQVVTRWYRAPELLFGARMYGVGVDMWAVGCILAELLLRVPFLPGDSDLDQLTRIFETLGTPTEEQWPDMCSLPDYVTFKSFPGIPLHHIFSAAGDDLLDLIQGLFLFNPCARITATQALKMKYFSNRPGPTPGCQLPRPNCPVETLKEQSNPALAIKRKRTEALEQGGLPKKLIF
Sequence of CDK7 (P51946 whole entry partner): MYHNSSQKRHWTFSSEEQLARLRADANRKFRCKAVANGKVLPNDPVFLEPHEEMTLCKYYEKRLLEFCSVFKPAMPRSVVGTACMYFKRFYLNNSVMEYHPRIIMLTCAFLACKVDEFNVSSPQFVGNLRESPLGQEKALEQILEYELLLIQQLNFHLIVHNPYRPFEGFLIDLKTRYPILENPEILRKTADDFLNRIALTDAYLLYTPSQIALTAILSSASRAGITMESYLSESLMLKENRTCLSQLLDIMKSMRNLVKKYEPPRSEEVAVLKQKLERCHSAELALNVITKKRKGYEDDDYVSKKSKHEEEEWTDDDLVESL
Sequence of CDK7 (P51948 whole entry partner): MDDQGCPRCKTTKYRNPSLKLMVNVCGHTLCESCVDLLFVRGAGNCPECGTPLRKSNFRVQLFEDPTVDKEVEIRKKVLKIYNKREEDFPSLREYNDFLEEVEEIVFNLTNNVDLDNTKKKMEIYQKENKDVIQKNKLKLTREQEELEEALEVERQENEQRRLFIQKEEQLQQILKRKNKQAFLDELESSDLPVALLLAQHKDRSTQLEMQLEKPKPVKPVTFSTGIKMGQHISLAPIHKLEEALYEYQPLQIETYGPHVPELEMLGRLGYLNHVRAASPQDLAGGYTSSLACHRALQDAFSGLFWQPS

Row | inhibition of phosphorylation, CDK7 (decrease vs untreated controls) (CDK7) [%] | SMILES | percentage of cells in the G2‐M phase (PANC‐1; PANC‐1, 1 × IC50, 24 h) [%] | percentage of cells in the G0‐G1 phase (PANC‐1; PANC‐1, 1 × IC50, 24 h) [%] | percentage of cells in the S phase (PANC‐1; PANC‐1, 1 × IC50, 24 h) [%] | percentage of cells in the G2‐M phase (PANC‐1; PANC‐1, 4 × IC50, 24 h) [%] | percentage of cells in the G0‐G1 phase (PANC‐1; PANC‐1, 4 × IC50, 24 h) [%] | percentage of cells in the S phase (PANC‐1; PANC‐1, 4 × IC50, 24 h) [%] | Bax/Bcl‐2 ratio SUIT 2.28 (Bax/Bcl‐2 [1]; 1 × IC50, 24 h after treatment) | Bax/Bcl‐2 ratio SUIT 2.28 (Bax/Bcl‐2 [1]; 4 × IC50, 24 h after treatment) | inhibition of cell migration (PATU‐T) | inhibition of cell migration (PDAC3) | Bax/Bcl‐2 ratio PATU‐T (Bax/Bcl‐2 [2]; 1 × IC50, 24 h after treatment) | Bax/Bcl‐2 ratio PATU‐T (Bax/Bcl‐2 [2]; 4 × IC50, 24 h after treatment) | inhibition of cell migration (PATU‐T GR)
1 | 70 | Nc1ncnc2cc(-c3c[nH]c4ccc(Br)cc34)nn12 [Compound 1b, 7‐(5‐Bromo‐1H‐indol‐3‐yl)pyrazolo[1,5‐a][1,3,5]triazin‐4‐amine] | 12.2 | 55.0 | 32.7 | 10.0 | 62.8 | 28.3 | 1.07 | 1.45 | greatest inhibitory effect | significant migration inhibition only at the 24‐hour time point | 4.43 | 4.03 | significantly inhibited as early as 4 h
2 | – | Cn1cc(-c2cc3ncnc(N)n3n2)c2cc(Br)ccc21 [Compound 1g, 7‐(5‐Bromo‐1‐methyl‐1H‐indol‐3‐yl)pyrazolo[1,5‐a][1,3,5]triazin‐4‐amine] | 16.9 | 55.2 | 27.9 | 14.1 | 56.9 | 29.0 | 1.21 | 2.06 | – | significant migration inhibition only at the 24‐hour time point | 2.82 | 3.74 | significantly inhibited as early as 4 h
